Assay results published in PMC2606674, “Metabolism of no-carrier-added 2-[^18F]fluoro-L-tyrosine in rats” (BMC Medical Physics, 2008).
Read-outs that look alike come from different tables or passages of the source.

What was measured:
[1] = design: method as in PMID 2787848; settings: cited from earlier work
cerebral proteins [2] = system: cerebral proteins; design: method as in PMID 2787848; settings: mouse cortex; cited from earlier work
[3] = Biodistribution of radioactivity after i.v. injection in awake rats; format: in vivo, rat
Procedure: All animal experiments were approved by the Ethical Committee at our institution. Chronic cannulations of rats (male, Sprague Dawley, 180–250 g) were performed in the abdominal aorta and in the vena cava under general anaesthesia (ketamine 35 mg/kg and medetomidin 0.35 mg/kg) following the procedure described by Lestage. The animals were allowed to recover for a minimum of 4 days before being used for metabolism studies. Most of them were injected with the tracer within the first week after surgery. Some of them were kept up to 4 weeks before injection. Twenty hours before the injection of the tracer, the food was removed from the cage. The arterial line was used for blood sampling and the other for i.v. injection of the tracer. The two lines were flushed with saline a few minutes before use in order to check potency. 14 rats (230–410 g) were injected with 20–325 MBq of n-c-a 2-[^18F]Tyr. The tracer was delivered as a bolus of maximum volume 0.75 ml in 15 s. […]
Radioactivity was measured in weighed fractions of plasma. […] The supernatant was analysed by HPLC. Radioactivity was measured in the organ samples and in one half of the three dissected parts of the brain. […] The supernatant was analysed by HPLC.
Radioactivity measurements of the biological samples and of the fractions collected during HPLC were performed with a NaI counter (Cobra II autogamma, Packard).

cerebral proteins [4] = test: Incorporation into proteins (TCA precipitation of brain regions) in rats; format: in vivo, rat
Procedure: Chronic cannulations of rats (male, Sprague Dawley, 180–250 g) were performed in the abdominal aorta and in the vena cava under general anaesthesia (ketamine 35 mg/kg and medetomidin 0.35 mg/kg) following the procedure described by Lestage [14]. The animals were allowed to recover for a minimum of 4 days before being used for metabolism studies. Most of them were injected with the tracer within the first week after surgery. Some of them were kept up to 4 weeks before injection. Twenty hours before the injection of the tracer, the food was removed from the cage. The arterial line was used for blood sampling and the other for i.v. injection of the tracer. The two lines were flushed with saline a few minutes before use in order to check potency. 14 rats (230–410 g) were injected with 20–325 MBq of n-c-a 2-[^18F]Tyr. The tracer was delivered as a bolus of maximum volume 0.75 ml in 15 s. Samples of blood were obtained via the arterial cannula during the first minutes after the injection and at different times (15, 30, 45, 60 and/or 90 minutes) thereafter. The line was flushed with saline between each sample to avoid any loss of potency and to ensure the homogeneity of the next sample. The animals (n = number of rats) were sacrificed after 30 (n = 2), 60 (n = 5), 90 (n = 3) or 120 (n = 4) minutes. After the final time point, samples of blood were taken and the major organs were dissected. The brain was dissected to obtain striatum, cortex and cerebellum.
Trichloroacetic acid (TCA) was used to precipitate the proteins from biological samples in order to assay the radioactive content associated with proteins and to perform a chromatographic analysis of the radioactive compounds in solution in the supernatant after centrifugation. The solution used for the precipitation was Na2S2O5 100 mg, NaEDTA.2H2O 10 mg, TCA 20 g, dissolved in water up to 100 ml.
Radioactivity was measured in weighed fractions of plasma. For intermediate and final plasma samples, proteins were precipitated with TCA solution and separated by centrifugation (5°C, 5 minutes, 8000 RPM) before counting. The supernatant was analysed by HPLC. Radioactivity was measured in the organ samples and in one half of the three dissected parts of the brain. The second halves were sonicated with water (Sonics & Materials inc., Vibracell VXC-400). The proteins were precipitated with TCA solution and separated by centrifugation (5°C, 5 minutes, 8000 RPM) before counting. The supernatant was analysed by HPLC.

N[C@@H](Cc1ccc(O)cc1[18F])C(=O)O [2-[^18F]Tyr, 2-[^18F]fluoro-L-tyrosine]
absolute uptake into brain tissue, mice ([1]; at 40 min): ~ 1.3 %IA/g
absolute uptake into brain tissue, mice ([1]; at 60 min): ~ 2 %IA/g
radioactivity associated with proteins, percentage of the total activity in the tissue (cerebral proteins [2]): 84%
absolute uptake into rat brain tissue ([3]; awake rats, i.v. bolus, n-c-a tracer): ~ 0.15 %IA/g
passage of the blood-brain-barrier ([3]; rats, brain uptake already high at 30 minutes post injection): rapidly passes the blood-brain-barrier
radioactivity associated with proteins, percentage of the total activity in the tissue (cerebral proteins [4]; rat cerebellum, 60 minutes): 84%
radioactivity associated with proteins, percentage of the total activity in the tissue (cerebral proteins [4]; rat cortex, 60 minutes): 85%
radioactivity associated with proteins, percentage of the total activity in the tissue (cerebral proteins [4]; rat striatum, 60 min): 66%
incorporation into proteins, percentage of the total activity (cerebral proteins [4]; rats, non dopaminergic rich regions, 120 minutes): ~90%
